Values of other authors as cited in patent publication US20090005321A1, “Phenylazetidinone Derivatives” (Microbia, Inc., priority 2005, published 2009).

Key:
[1] = in humans
[2] = in vivo

## O=C1[C@H](CC[C@H](O)c2ccc(F)cc2)[C@@H](c2ccc(O)cc2)N1c1ccc(F)cc1 [ezetimibe, (3R,4S)-1-(4-fluorophenyl)-3-[(3S)-3-(4-fluorophenyl)-3-hydroxypropyl]-4-(4-hydroxyphenyl)azetidin-2-one]
[1]
  fat-soluble vitamin absorption: does not appear to affect
[2]
  absorption of taurocholic acid: does not inhibit
